Laboratory results from PubChem BioAssay (NCI).
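1) Cells in 96-well plates. 2) Compound, 48 h, 5 concentrations. 3) Linear interpolation between surrounding doses. 4) Unreached endpoint = highest concentration. Definition used: TGI = concentration required for complete inhibition of growth.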

Columns and labels:
Test in all cases: inhibition of tumour cell growth, NCI panel, 48 h
[1] = system: SK-MEL-2 melanoma
[2] = system: TK-10 renal
[3] = system: 786-0 renal
[4] = system: COLO 205 colon
[5] = system: SK-OV-3 ovarian
[6] = system: NCI-H522 lung
[7] = system: BT-549 breast
[8] = system: SR leukemia
[9] = system: OVCAR-3 ovarian
[10] = system: HCC-2998 colon
[11] = system: SF-539 CNS
[12] = system: HOP-62 NSCLC
[13] = system: SNB-19 CNS
[14] = system: HS 578T breast
[15] = system: RPMI-8226 leukemia
[16] = system: HCT-15 colon
[17] = system: LOX IMVI melanoma
[18] = system: DU-145 prostate
[19] = system: CAKI-1 renal
[20] = system: T-47D breast

SMILES | TGI [1] | TGI [2] | TGI [3] | TGI [4] | TGI [5] | TGI [6] | TGI [7] | TGI [8] | TGI [9] | TGI [10] | TGI [11] | TGI [12] | TGI [13] | TGI [14] | TGI [15] | TGI [16] | TGI [17] | TGI [18] | TGI [19] | TGI [20]
COc1cc2c[n+](C)c3c4cc5c(cc4ccc3c2cc1OC)OCO5 | 6.97 µM | > 93.1 µM | 21.7 µM | 4.48 µM | 5.64 µM | 2.06 µM | 78.4 µM | 22.8 µM | 9.39 µM | 7.52 µM | 5.32 µM | 16.4 µM | 21.5 µM | > 100 µM | 23.5 µM | > 100 µM | 24.8 µM | 9.19 µM | – | –
COc1cc(S(=O)(=O)Nc2nc(-c3ccc(N4C(=O)C(CC(=O)O)SC4c4ccccc4O)cc3)cs2)ccc1Cl (stereo unspecified) | > 100 µM | > 100 µM | > 100 µM | > 100 µM | > 100 µM | > 100 µM | – | > 100 µM | > 100 µM | > 100 µM | > 100 µM | > 100 µM | > 100 µM | > 100 µM | – | > 100 µM | > 100 µM | > 100 µM | > 100 µM | > 100 µM
COc1cc(C2SCC(=O)N2c2ccccc2Cl)cc(OC)c1OC (stereo unspecified) | > 100 µM | > 100 µM | > 100 µM | > 100 µM | > 100 µM | > 100 µM | > 100 µM | > 100 µM | > 100 µM | > 100 µM | > 100 µM | – | > 100 µM | > 100 µM | > 100 µM | > 100 µM | > 100 µM | > 100 µM | > 100 µM | –
COC(=O)C(C)NP(=O)(N1CC1)N1CC1 (stereo unspecified) | > 100 µM | > 100 µM | – | > 100 µM | > 100 µM | > 100 µM | – | – | – | > 100 µM | > 100 µM | – | > 100 µM | – | > 100 µM | > 100 µM | > 100 µM | – | > 100 µM | –
CC12CCC3[C@@H](CC3(C)C)C(O)(CCC1=O)C2 (stereo partly specified) | > 100 µM | > 100 µM | > 100 µM | > 100 µM | > 100 µM | – | – | > 100 µM | > 100 µM | > 100 µM | > 100 µM | > 100 µM | – | > 100 µM | > 100 µM | > 100 µM | > 100 µM | > 100 µM | > 100 µM | > 100 µM
O=C1c2ccccc2C(O)(C(=O)O)C1(O)CC=C(Cl)Cl (stereo unspecified) | > 125 µM | – | – | > 125 µM | > 125 µM | > 125 µM | – | – | > 125 µM | > 125 µM | > 125 µM | > 125 µM | > 78.9 µM | – | > 125 µM | > 125 µM | > 125 µM | – | > 125 µM | –
